What was measured:
human panelists [1] = assay: Sweetness threshold: paired comparison taste test, LSB+compound at pH 7.1 vs. 1% sucrose; assay type: in vivo; settings: 25 ppm compound in LSB
Experimental: (§1) Test samples containing experimental compounds are presented in pairs to the panelist and they are asked to determine which of the sample is sweeter. […] A group of 10 to 16 or more panelists participated in each test. Subjects refrained from eating or drinking (except water) for at least 1 hour prior to the test. Subjects rinsed with water several times to clean the mouth.
(§2) Taste tests were performed with sucrose or HFCS as the sweetener in the presence or absence of compound. A 0.2% stock solution of compound in water with sodium bicarbonate was prepared and then this stock solution was diluted in the final sample to achieve the targeted final concentration of compound. Taste samples were also prepared in a low sodium phosphate buffer (pH 7.1; “LSB”) lacking sucrose or HFCS to evaluate the taste of the compound alone. Low sodium phosphate buffer consists of 0.3 mM KCl, 0.5 mM Na2HPO4, and 0.175 mM KH2PO4. Sample volumes are usually 20 ml.
(§3) In one paired comparison test, the panelist is presented with two different samples and asked to identify the sample which is sweeter. The samples within a paired comparison test are presented in a randomized, counterbalanced order. Panelists have up to a 1 minute delay between taste tests to clear the mouth of any tastes. […]

human panelists [2] = assay: Enhancement of HFCS at pH 2.8: paired comparison taste test, 6% HFCS+compound vs. 8% or 9% HFCS; assay type: in vivo; settings: 20 ppm compound in 6% HFCS
Experimental: as §1, §2, §3

human panelists [3] = assay: Enhancement of sucrose at pH 7.1: paired comparison taste test, 6% sucrose+compound vs. 10%, 11% or 12% sucrose; assay type: in vivo; settings: 10 ppm compound in 6% sucrose
Experimental: as §1, §2, §3

human panelists [4] = assay: Enhancement of sucrose at pH 2.8: paired comparison taste test, 6% sucrose+compound vs. 10%, 11% or 12% sucrose; assay type: in vivo
Experimental: as §1, §2, §3

CC(C)(COc1cccc2c1C(N)=NS(=O)(=O)N2)NC(=O)c1ccncc1 [Compound A1, N-(1-(4-amino-2,2-dioxide-1H-benzo[c][1,2,6]thiadiazin-5-yloxy)-2-methylpropan-2-yl)isonicotinamide]
melting point: 235 to 238 °C
Sweetness of compound alone vs. 1% sucrose (human panelists [1]): 25 ppm equivalent to 1% sucrose
HFCS equivalence of 6% HFCS + compound (human panelists [2]): 20 ppm in 6% HFCS is equivalent to 9% HFCS
Sucrose equivalence of 6% sucrose + compound (human panelists [3]): 10 ppm in 6% sucrose is equivalent to 10% sucrose
Sucrose equivalence of 6% sucrose + compound (human panelists [4]; 5 ppm compound in 6% sucrose): 5 ppm in 6% sucrose is equivalent to 11% sucrose
Sucrose equivalence of 6% sucrose + compound (human panelists [4]; 10 ppm compound in 6% sucrose): 10 ppm in 6% sucrose is equivalent to 12% sucrose

Cc1cc(C(=O)NC(C)(C)COc2cccc3c2C(N)=NS(=O)(=O)N3)ccn1 [Example 2, N-(1-((4-amino-2,2-dioxide-1H-benzo[c][1,2,6]thiadiazin-5-yl)oxy)-2-methylpropan-2-yl)-2-methylisonicotinamide]
melting point: 238 to 240 °C

NC1=NS(=O)(=O)Nc2cccc(OCC3(NC(=O)c4ccncc4)CCCC3)c21 [Example 9, N-(1-(((4-amino-2,2-dioxido-1H-benzo[c][1,2,6]thiadiazin-5-yl)oxy)methyl)cyclopentyl)isonicotinamide]
melting point: > 250 °C
